From BindingDB's records for doi:10.1021/acsmedchemlett.0c00495 (Janssen Research & Development, 2020)

Molecular target: Cannabinoid receptor 2 (Homo sapiens, UniProt P34972)
Experiment: Inverse agonist activity at human CB2 receptor expressed in HEK293 cells assessed as forskolin-stimulated cAMP accumulation after 30 mins by HTRF assay

Sequence of Cannabinoid receptor 2 (P34972 whole entry): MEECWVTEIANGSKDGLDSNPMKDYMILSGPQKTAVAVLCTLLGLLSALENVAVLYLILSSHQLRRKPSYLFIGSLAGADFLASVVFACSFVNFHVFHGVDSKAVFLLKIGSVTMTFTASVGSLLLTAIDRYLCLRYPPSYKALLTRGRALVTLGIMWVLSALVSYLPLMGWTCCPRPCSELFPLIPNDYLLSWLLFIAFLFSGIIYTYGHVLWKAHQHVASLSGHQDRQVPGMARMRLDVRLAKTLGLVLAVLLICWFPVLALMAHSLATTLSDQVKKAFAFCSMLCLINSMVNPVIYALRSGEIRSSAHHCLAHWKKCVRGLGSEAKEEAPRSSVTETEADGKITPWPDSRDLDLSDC

EC50: > 10 µM
SMILES: Nc1nc(NC2CCN(S(=O)(=O)C(F)(F)F)CC2)c2cc(C(c3ccc(Cl)cc3)c3ccc(Cl)cc3)ccc2n1 [US9682955, 107]
